How the values were obtained:
[1] = system: control sera (pooled serum of ten healthy LUMC hospital workers; commercial negative donor pooled serum from the Dutch bloodbank); assay type: binding, human; set-up: Binding of Control serum LUMC to linear peptides / Binding of Control serum Blood-bank to linear peptides / Binding of Control serum LUMC to looped peptides / Binding of Control Serum Blood-Bank to Looped peptides / Binding of Control serum LUMC to linear peptides of the protein M of SARS-CoV Urbani / Binding of Control serum Blood-bank to linear peptides of the protein M of SARS-CoV Urbani / Binding of Control serum LUMC to looped peptides of the protein M of SARS-CoV Urbani / Binding of Control Serum Blood-Bank to Looped peptides of the protein M of SARS-CoV Urbani: unit not given here
[2] = system: rabbit serum obtained by immunizing a rabbit with the SARS-CoV strain Frankfurt 1; assay type: binding; set-up: Binding of a rabbit serum to linear peptides / Binding of a rabbit serum to looped peptides / Rabbit serum linear peptides / Rabbit serum looped peptides / Binding of a rabbit serum to linear peptides of protein N of SARS-CoV Urbani (Rabbit serum linear peptides) / Binding of a rabbit serum to looped/cyclic peptides of protein N of SARS-CoV Urbani (Rabbit serum looped peptides): unit not given here
[3] = system: antibodies in sera from SARS patients (sera 1a, 1b, 2, 6, 37, 62, London, SARS-yellow, SARS-green); assay type: binding, human; set-up: Binding of serum 6 to linear peptides of protein X1 of SARS-CoV Urbani / Binding of serum 37 to linear peptides of protein X1 of SARS-CoV Urbani / Binding of serum 6 to looped/cyclic peptide (PEPSCAN-ELISA) / Binding of serum 37 to looped/cyclic peptide (PEPSCAN-ELISA) / Binding of serum 37 to looped/cyclic peptides of protein X1 of SARS-CoV Urbani / Binding of serum 6 to linear peptides of protein X2 / Binding of serum 37 to linear peptides of protein X2 / Binding of serum 37 to looped/cyclic peptides of protein X2 of SARS-CoV Urbani / Binding of serum 6 to linear peptides of protein M of SARS-CoV Urbani / Binding of serum 37 to linear peptides of protein M of SARS-CoV Urbani / Binding of serum 6 to looped/cyclic peptides of protein M of SARS-CoV Urbani / Binding of serum 37 to looped/cyclic peptides of protein M of SARS-CoV Urbani / Binding of serum 6 to linear peptides of protein X3 of SARS-CoV Urbani / Binding of serum 37 to linear peptides of protein X3 of SARS-CoV Urbani / Binding of serum 37 to looped/cyclic peptides of protein X3 of SARS-CoV Urbani / Binding of serum 6 to linear peptides of protein X4 of SARS-CoV Urbani / Binding of serum 37 to linear peptides of protein X4 of SARS-CoV Urbani / Binding of serum 37 to looped/cyclic peptides of protein X4 of SARS-CoV Urbani / Binding of serum 6 to linear peptides of protein X5 of SARS-CoV Urbani / Binding of serum 37 to linear peptides of protein X5 of SARS-CoV Urbani / Binding of serum 37 to looped/cyclic peptides of protein X5 of SARS-CoV Urbani / Binding of serum 6 to linear peptides of protein N of SARS-CoV Urbani / Binding of serum 37 to linear peptides of protein N of SARS-CoV Urbani / Binding of serum 6 to linear peptide (PEPSCAN-ELISA) / Binding of serum 1a to looped/cyclic peptides of protein N of SARS-CoV Urbani / Binding of serum 1b to looped/cyclic peptides of protein N of SARS-CoV Urbani / Binding of serum 2 to looped/cyclic peptides of protein N of SARS-CoV Urbani / Binding of serum 6 to looped/cyclic peptides of protein N of SARS-CoV Urbani / Binding of serum 37 to looped/cyclic peptides of protein N of SARS-CoV Urbani / Binding of serum 62 to looped/cyclic peptides of protein N of SARS-CoV Urbani / Binding of serum London to looped/cyclic peptides of protein N of SARS-CoV Urbani / Binding of serum SARS-green to looped/cyclic peptides of protein N of SARS-CoV Urbani: unit not given here

Row | Sequence | Binding of Control Serum Blood-Bank to Looped peptides [1] | Binding of Control serum Blood-bank to linear peptides [1] | Binding of Control serum LUMC to linear peptides [1] | Binding of Control serum LUMC to looped peptides [1] | Binding of serum 1a to linear peptides of protein X1 of SARS-CoV Urbani [3] | Binding of serum 1a to looped/cyclic peptide (PEPSCAN-ELISA) [3] | Binding of serum 1b to linear peptides of protein X1 of SARS-CoV Urbani [3] | Binding of serum 1b to looped/cyclic peptide (PEPSCAN-ELISA) [3] | Binding of serum 2 to linear peptides of protein X1 of SARS-CoV Urbani [3] | Binding of serum 2 to looped/cyclic peptide (PEPSCAN-ELISA) [3] | Binding of serum 6 to linear peptides of protein X1 of SARS-CoV Urbani [3] | Binding of serum 6 to looped/cyclic peptide (PEPSCAN-ELISA) [3] | Binding of serum 37 to linear peptides of protein X1 of SARS-CoV Urbani [3] | Binding of serum 37 to looped/cyclic peptide (PEPSCAN-ELISA) [3] | Binding of serum 62 to linear peptides of protein X1 of SARS-CoV Urbani [3] | Binding of serum 62 to looped/cyclic peptide (PEPSCAN-ELISA) [3] | Binding of serum London to linear peptides of protein X1 of SARS-CoV Urbani [3] | Binding of serum London to looped/cyclic peptide (PEPSCAN-ELISA) [3] | Binding of serum SARS-green to linear peptides of protein X1 of SARS-CoV Urbani [3] | Binding of serum SARS-green to looped/cyclic peptide (PEPSCAN-ELISA) [3] | also measured
1 | QCINACRIIMRCWLC | 0.6 | 0.9 | 0.7 | 0.7 | 0.8 | 0.6 | 0.6 | 0.4 | 0.5 | 0.6 | 0.8 | 0.8 | 0.7 | 0.6 | 0.7 | 0.7 | 0.4 | 1.4 | 0.2 | 0.2 | Recognition of the peptide by the rabbit serum [2]: recognized; Binding of serum SARS-yellow to linear peptides of protein X1 of SARS-CoV Urbani [3]: 0.3; Binding of serum SARS-yellow to looped/cyclic peptide (PEPSCAN-ELISA) [3]: 0.4
2 | QFICNLLLLFVTIYS | 0.5 | 0.6 | 0.6 | 0.5 | 0.6 | 0.5 | 0.5 | 0.4 | 0.6 | 0.6 | 0.4 | 0.3 | 0.5 | 0.5 | 0.6 | 0.5 | 0.2 | 0.2 | 0.0 | 0.2 | Binding of a rabbit serum to linear peptides [2]: 0.3; Binding of a rabbit serum to looped peptides [2]: 0.5; Binding of serum SARS-yellow to linear peptides of protein X1 of SARS-CoV Urbani [3]: 0.4; Binding of serum SARS-yellow to looped/cyclic peptide (PEPSCAN-ELISA) [3]: 0.5
3 | QFLYLYALIYFLQCI | 0.5 | 0.5 | 0.4 | 0.6 | 0.7 | 0.5 | 0.5 | 0.3 | 0.5 | 0.3 | 0.4 | 0.2 | 0.6 | 0.5 | 0.5 | 0.5 | 0.2 | 0.2 | 0.2 | 0.2 | Binding of a rabbit serum to linear peptides [2]: 0.1; Binding of a rabbit serum to looped peptides [2]: 0.4; Binding of serum SARS-yellow to linear peptides of protein X1 of SARS-CoV Urbani [3]: 0.5; Binding of serum SARS-yellow to looped/cyclic peptide (PEPSCAN-ELISA) [3]: 0.3

— patent US20070128217A1 (priority 2003, published 2007)
